Read-outs that look alike come from different tables or passages of the source.
Tests used:
GRP94 [1] = target: T1, GRP94 (Mus musculus, UniProt P08113); test: Solid phase 96-well plate assay of peptide binding by recombinant GRP94 N-terminal fragments; set-up: His6 tagged N355, comprising of amino acids 34-355 of GRP94; made in house; host or cells: E. coli M15; species or system murine
WT ES cells = conditions: 1 mM EGTA, FIG. 14E-F
grp94-/- ES cells = conditions: 1 mM EGTA, FIG. 14E-F
GRP94 [2] = target: GRP94 (Homo sapiens, UniProt P14625); test: GRP94 binding of antigenic peptides (Table 3)
Chain of GRP94 (Homo sapiens, UniProt P14625) (P14625 22-803, species assumed): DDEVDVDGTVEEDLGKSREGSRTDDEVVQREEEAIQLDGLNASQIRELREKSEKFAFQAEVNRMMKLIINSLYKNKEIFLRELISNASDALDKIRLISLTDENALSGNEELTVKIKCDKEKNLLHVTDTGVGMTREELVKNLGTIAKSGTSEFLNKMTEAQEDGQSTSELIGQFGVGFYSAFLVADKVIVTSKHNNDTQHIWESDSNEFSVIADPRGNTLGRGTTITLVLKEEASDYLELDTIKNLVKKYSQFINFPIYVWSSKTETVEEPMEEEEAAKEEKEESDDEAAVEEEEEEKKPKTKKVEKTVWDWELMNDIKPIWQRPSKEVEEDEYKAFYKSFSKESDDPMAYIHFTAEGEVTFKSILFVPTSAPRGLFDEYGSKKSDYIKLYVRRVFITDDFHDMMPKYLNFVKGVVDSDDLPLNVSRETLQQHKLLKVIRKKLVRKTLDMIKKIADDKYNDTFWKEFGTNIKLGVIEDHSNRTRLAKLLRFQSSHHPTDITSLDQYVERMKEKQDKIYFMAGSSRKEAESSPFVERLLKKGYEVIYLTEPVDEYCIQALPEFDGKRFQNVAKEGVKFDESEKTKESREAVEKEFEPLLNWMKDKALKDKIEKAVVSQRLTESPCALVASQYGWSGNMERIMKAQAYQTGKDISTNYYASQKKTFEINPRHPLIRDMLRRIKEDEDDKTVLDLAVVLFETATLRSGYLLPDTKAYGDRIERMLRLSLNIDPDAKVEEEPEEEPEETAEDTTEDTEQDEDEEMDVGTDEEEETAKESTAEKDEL

GRP94 [3] = conditions: vast molar excess of peptide, 10 min 50° C. treatment of the protein
GRP94 [4] = target: T1, GRP94; set-up: a truncated version of GRP94, containing amino acids 1-355; made in house; host or cells: insect cells; conditions: full-length GRP94, ref [14]; cited from earlier work
tumors = conditions: vaccinated mice, Blachere et al. 1997; cited from earlier work
[5] = tested on: purified mouse dendritic cells; test: Binding and uptake of GRP94 N-terminal domain by dendritic cells; assay type: cell-based; conditions: bound at 40° C., warmed to 37° C., into endosomal vesicles, FIG. 16
GRP94 [6] = test: Solid phase 96-well plate assay of peptide binding by recombinant GRP94 N-terminal fragments; set-up: species or system murine
[7] = tested on: radicicol-binding pocket of GRP94; test: Radicicol binding judged by conformational change on blue native gel electrophoresis; set-up: species or system murine; conditions: 300 μM radicicol or DMSO
[8] = antigenic peptides that can be loaded on GRP94

Molecule: CCOC(=O)OC(=O)OCC [DEPC, Diethyl pyrocarbonate]
- Effect of histidine modification on peptide-binding activity of N34-355 (GRP94 [1]; His6 tag cleaved, peptide A-coated plates, 0.7 μg protein per well, FIG. 6C): abolished

Molecule: O=C(O)CN(CCOCCOCCN(CC(=O)O)CC(=O)O)CC(=O)O [EGTA]
- Growth under Ca++-chelating conditions, WT cells (WT ES cells): can grow for 5 days
- Growth under Ca++-chelating conditions, -/- cells (grp94-/- ES cells): cannot grow

Molecule: NO [Hydroxylamine]
- Effect of histidine modification on peptide-binding activity of N34-355 (GRP94 [1]): restored the activity

Molecule: c1c[nH]cn1 [imidazole]
- IC50 (GRP94 [1]; N34-355 binding to peptide A, FIG. 6B, read-out: Imidazole concentration that reduced peptide binding by half): 6 mM

Molecule: FLWGPRALV [MAGE 3]
- GRP94 binding (GRP94 [2]; [8]): yes

Molecule: Glucose Regulated Protein 94 [GRP94]
- Fraction of the protein that can be loaded with peptide (GRP94 [3]): up to 85%
- Fraction of the protein shown to bind peptides (GRP94 [4]): about 1%

Molecule: KRQIYTDLEMNRLGK [PepA]
- Binder or non-binder of GRP94 in the peptide binding assay (GRP94 [1]): binder

Molecule: RAHYNIVTF (RAH)
- GRP94 binding (GRP94 [2]): yes, weak

Molecule: RGYVYQGL [VSV8]
- GRP94 binding (GRP94 [2]): yes
- Binder or non-binder of GRP94 in the peptide binding assay (GRP94 [1]): binder

Molecule: SIINFEKL [OVA 257-264]
- GRP94 binding (GRP94 [2]; [8]): yes

B1: GRP94 bound to tumor peptides: GRP94 complexed with tumor peptides, used to vaccinate mice (Srivastava's lab) (protein, UniProt P08113 22-802, looked up)
Endoplasmin: DDEVDVDGTVEEDLGKSREGSRTDDEVVQREEEAIQLDGLNASQIRELREKSEKFAFQAEVNRMMKLIINSLYKNKEIFLRELISNASDALDKIRLISLTDENALAGNEELTVKIKCDKEKNLLHVTDTGVGMTREELVKNLGTIAKSGTSEFLNKMTEAQEDGQSTSELIGQFGVGFYSAFLVADKVIVTSKHNNDTQHIWESDSNEFSVIADPRGNTLGRGTTITLVLKEEASDYLELDTIKNLVRKYSQFINFPIYVWSSKTETVEEPLEEDEAAKEEKEESDDEAAVEEEEEEKKPKTKKVEKTVWDWELMNDIKPIWQRPSKEVEEDEYKAFYKSFSKESDDPMAYIHFTAEGEVTFKSILFVPTSAPRGLFDEYGSKKSDYIKLYVRRVFITDDFHDMMPKYLNFVKGVVDSDDLPLNVSRETLQQHKLLKVIRKKLVRKTLDMIKKIADEKYNDTFWKEFGTNIKLGVIEDHSNRTRLAKLLRFQSSHHSTDITSLDQYVERMKEKQDKIYFMAGSSRKEAESSPFVERLLKKGYEVIYLTEPVDEYCIQALPEFDGKRFQNVAKEGVKFDESEKTKESREATEKEFEPLLNWMKDKALKDKIEKAVVSQRLTESPCALVASQYGWSGNMERIMKAQAYQTGKDISTNYYASQKKTFEINPRHPLIRDMLRRIKEDEDDKTVMDLAVVLFETATLRSGYLLPDTKAYGDRIERMLRLSLNIDPEAQVEEEPEEEPEDTSEDAEDSEQDEGEEMDAGTEEEEEETEKESTEKDEL
modifications: complexed with tumor peptides
- Improvement of T cell responses on tumor challenge compared to control mice (tumors): 10-200 fold

B2: N34-355: Recombinant GRP94 fragment, amino acids 34-355, N-terminal His6 tag and factor Xa site, expressed in E. coli (protein)
chain: PYNGTGSAIQLDGLNASQIRELREKSEKFAFQAEVNRMMKLIINSLYKNKEIFLRELISNASDALDKIRLISLTDENALSGNEELTVKIKCDKEKNLLHVTDTGVGMTREELVKNLGTIAKSGTSEFLNKMTEAQEDGQSTSELIGQFGVGFYSAFLVADKVIVTSKHNNDTQHIWESDSNEFSVIADPRGNTLGRGTTITLVLKEEASDYLELDTIKNLVKKYSQFINFPIYVWSSKTETVEEPMEEEEAAKEEKEESDDEAAVEEEEEEKKPKTKKVEKTVWDWELMNDIKPIWQRPSKEVEEDEYKAFYKSFSKESDDPMAYIHFT
modifications: left off: small tags and cut ends
notes: Recombinant GRP94 fragment, amino acids 34-355, N-terminal His6 tag and factor Xa site, expressed in E. coli
- Uptake by dendritic cells [5]: internalized
- Inhibition of peptide binding activity by pre-treatment with radicicol (GRP94 [6]): inhibited significantly
- Binding of VSV8 peptide (dose binding curve) (GRP94 [1]; VSV8-coated plates, compared with N1-355, FIG. 1B): binding curve very similar to that of N1-355

B3: H125D: N34-355 with His125 mutated to Asp (protein, UniProt P14625 34-355, looked up, variant H125D)
chain: DLGKSREGSRTDDEVVQREEEAIQLDGLNASQIRELREKSEKFAFQAEVNRMMKLIINSLYKNKEIFLRELISNASDALDKIRLISLTDENALSGNEELTVKIKCDKEKNLLDVTDTGVGMTREELVKNLGTIAKSGTSEFLNKMTEAQEDGQSTSELIGQFGVGFYSAFLVADKVIVTSKHNNDTQHIWESDSNEFSVIADPRGNTLGRGTTITLVLKEEASDYLELDTIKNLVKKYSQFINFPIYVWSSKTETVEEPMEEEEAAKEEKEESDDEAAVEEEEEEKKPKTKKVEKTVWDWELMNDIKPIWQRPSKEVEEDEY
modifications: fragment 34-355 His6 tag, factor Xa site
notes: N34-355 with His125 mutated to Asp
- Peptide binding activity (GRP94 [6]; peptide A-coated plates, 0.7 or 2 μg protein, FIG. 7A): almost no peptide binding activity
- Radicicol binding (conformational change, native gel mobility, 9G10 epitope) [7]: retained its ability to bind the inhibitor radicicol
